# Values of other authors in patent US20210379059A1, “COMBINATION OF SUBSTANCES FOR REGENERATIVE THERAPY IN PATIENTS WITH TYPE 1 DIABETES MELLITUS” (Levicure Ltd., priority 2018, published 2021).
# Read-outs that look alike come from different tables or passages of the source.
# Tests used:
# β-cells [1] = settings: mouse cell cultures
# β-cells [2] = settings: human cell cultures
# [3] = tested on: adult patients with type 1 diabetes; settings: 8 weeks, despite a reduction of total and lunch dose of insulin
Compound,regeneration of β-cells (β-cells [1]),regeneration of β-cells (β-cells [2]),blood glucose levels [3]
"NCCCC(=O)O [GABA, gamma-aminobutyric acid]",provide the regeneration of β-cells,provide the regeneration of β-cells,
N[C@@H](CC(=O)N1CCn2c(nnc2C(F)(F)F)C1)Cc1cc(F)c(F)cc1F [Sitagliptin],,,significantly reduced
